For assay [1], the target named is Human norepinephrine transporter (NET) (Homo sapiens, UniProt P23975). The assay can be described thus: Binding assay to human norepinephrine transporter (NET), [3H]-Nisoxetin. The following applies: human NET enriched membranes, 5 nM [3H]-Nisoxetin; read-out: Ki (nM) NET Hum. The method in brief:
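NET-enriched membranes (5 μg) incubated with 5 nM [3H]-nisoxetin in 50 mM Tris-HCl, 120 mM NaCl, 5 mM KCl, pH 7.4, for 60 min at 4 °C. Separation by filtration on PEI-soaked GF/C, then scintillation counting.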

For assay [2], the target named is Human α2δ-1 subunit of Cav2.2 calcium channel (Homo sapiens, UniProt P54289). The assay can be described thus: Binding assay to human α2δ-1 subunit of Cav2.2 calcium channel, [3H]-Gabapentin. As to conditions: human α2δ-1 enriched membranes, 15 nM [3H]-Gabapentin; read-out: Ki (nM) alpha2delta Hum. The method in brief: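 Human α2δ-1-enriched membranes incubated with 15 nM [3H]-gabapentin in 10 mM Hepes-KOH pH 7.4, 60 min at 27 °C; nonspecific binding defined with 10 μM pregabalin. Bound ligand separated by filtration on PEI-presoaked GF/C filters, washed with ice-cold 50 mM Tris-HCl pH 7.4, counted by scintillation.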
Chain of Human α2δ-1 subunit of Cav2.2 calcium channel (P54289 25-1103): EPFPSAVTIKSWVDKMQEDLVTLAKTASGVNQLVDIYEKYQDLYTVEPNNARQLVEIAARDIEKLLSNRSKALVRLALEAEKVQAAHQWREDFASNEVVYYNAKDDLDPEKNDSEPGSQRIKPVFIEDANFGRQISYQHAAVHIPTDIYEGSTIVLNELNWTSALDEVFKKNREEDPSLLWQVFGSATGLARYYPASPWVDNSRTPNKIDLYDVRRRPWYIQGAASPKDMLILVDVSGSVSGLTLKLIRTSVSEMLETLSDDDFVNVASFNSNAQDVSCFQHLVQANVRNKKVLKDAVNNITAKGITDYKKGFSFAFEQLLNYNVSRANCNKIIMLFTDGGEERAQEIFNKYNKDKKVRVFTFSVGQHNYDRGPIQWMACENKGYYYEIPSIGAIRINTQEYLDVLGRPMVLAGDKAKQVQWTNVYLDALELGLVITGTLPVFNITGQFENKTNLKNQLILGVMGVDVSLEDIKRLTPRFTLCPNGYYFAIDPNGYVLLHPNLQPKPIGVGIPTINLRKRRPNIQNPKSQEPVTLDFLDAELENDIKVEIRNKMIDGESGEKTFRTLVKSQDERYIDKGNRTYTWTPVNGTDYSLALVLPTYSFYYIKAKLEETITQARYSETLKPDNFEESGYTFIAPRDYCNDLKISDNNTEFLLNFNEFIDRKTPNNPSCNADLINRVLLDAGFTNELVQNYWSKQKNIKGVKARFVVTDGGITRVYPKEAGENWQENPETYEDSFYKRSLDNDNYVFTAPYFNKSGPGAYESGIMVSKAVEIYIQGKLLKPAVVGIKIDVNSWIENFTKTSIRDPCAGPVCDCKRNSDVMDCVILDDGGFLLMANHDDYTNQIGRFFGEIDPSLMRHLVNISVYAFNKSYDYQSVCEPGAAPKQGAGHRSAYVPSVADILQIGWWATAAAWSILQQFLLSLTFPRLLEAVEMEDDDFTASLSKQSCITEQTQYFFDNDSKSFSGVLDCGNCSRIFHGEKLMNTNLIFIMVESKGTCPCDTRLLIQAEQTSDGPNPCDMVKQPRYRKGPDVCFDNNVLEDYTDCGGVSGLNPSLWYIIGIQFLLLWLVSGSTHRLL

For 26 compounds, Ki results are on record in US20200207759A1, “NEW PROPANAMINE DERIVATIVES FOR TREATING PAIN AND PAIN RELATED CONDITIONS” (ESTEVE PHARMACEUTICALS, S.A., priority 2017, published 2020).

Chain of Human norepinephrine transporter (NET) (P23975 whole entry): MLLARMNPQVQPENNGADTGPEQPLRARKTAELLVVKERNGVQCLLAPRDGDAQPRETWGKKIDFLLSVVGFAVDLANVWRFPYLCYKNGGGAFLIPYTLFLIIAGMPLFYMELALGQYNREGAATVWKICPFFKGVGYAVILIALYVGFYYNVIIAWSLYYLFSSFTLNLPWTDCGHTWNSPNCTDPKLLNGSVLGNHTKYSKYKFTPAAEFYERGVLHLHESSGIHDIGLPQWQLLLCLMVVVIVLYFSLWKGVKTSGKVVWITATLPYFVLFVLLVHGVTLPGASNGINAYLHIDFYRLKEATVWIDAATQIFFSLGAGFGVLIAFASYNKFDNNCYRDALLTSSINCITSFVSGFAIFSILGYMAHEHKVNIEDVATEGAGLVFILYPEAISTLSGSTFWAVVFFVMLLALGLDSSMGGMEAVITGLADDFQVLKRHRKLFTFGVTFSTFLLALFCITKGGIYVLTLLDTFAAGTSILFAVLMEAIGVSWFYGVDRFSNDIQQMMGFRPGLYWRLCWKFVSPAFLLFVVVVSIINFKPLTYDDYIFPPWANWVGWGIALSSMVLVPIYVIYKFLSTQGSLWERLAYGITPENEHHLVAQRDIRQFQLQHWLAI

Consider `CNCC[C@@H](c1ccc(Cl)s1)N1CCc2ncccc21` [Example 40, (S)-3-(5-Chlorothiophen-2-yl)-3-(2,3-dihydro-1H-pyrrolo[3,2-b]pyridin-1-yl)-N-methylpropan-1-amine], for which the Ki in assay [1] is 500 to 1000 nM; in assay [2], 100 to 500 nM.
On the same counts, the results for `CNCC[C@@H](c1cccs1)N1CCc2ncccc21` [Example 16, (S)-3-(2,3-Dihydro-1H-pyrrolo[3,2-b]pyridin-1-yl)-N-methyl-3-(thiophen-2-yl)propan-1-amine] are 100 to 500 nM and 100 to 500 nM.
On the same counts, the results for `CNCC[C@@H](c1nccs1)N1CCc2ncccc21` [Example 55, (S)-3-(2,3-Dihydro-1H-pyrrolo[3,2-b]pyridin-1-yl)-N-methyl-3-(thiazol-2-yl)propan-1-amine] are more than 1000 nM and not below 3000 nM.
For `CNCC[C@@H](c1ccsc1)N1CCc2nc(C)ccc21` [Example 63, (S)—N-methyl-3-(5-methyl-2,3-dihydro-1H-pyrrolo[3,2-b]pyridin-1-yl)-3-(thiophen-3-yl)propan-1-amine] the same measures were 500 to 1000 nM and 500 to 3000 nM.
With `CNCC[C@@H](c1cscc1C)N1CCc2ncccc21` [Example 50, (S)-3-(2,3-Dihydro-1H-pyrrolo[3,2-b]pyridin-1-yl)-N-methyl-3-(4-methylthiophen-3-yl)propan-1-amine], the Ki in assay [1] was 100 to 500 nM; in assay [2] it was not below 3000 nM.
In the case of `CNCC[C@@H](c1cccs1)N1CC(C)(C)c2ncccc21` [Example 21, (S)-3-(3,3-dimethyl-2,3-dihydro-1H-pyrrolo[3,2-b]pyridin-1-yl)-N-methyl-3-(thiophen-2-yl)propan-1-amine], the Ki in assay [1] fell in the range of 100 to 500 nM; in assay [2] it was 500 to 3000 nM.
With `CNCC[C@@H](c1cccs1)N1CC(C)(C)c2nc(OC)ccc21` [Example 113, (S)-3-(5-Methoxy-3,3-dimethyl-2,3-dihydro-1H-pyrrolo[3,2-b]pyridin-1-yl)-N-methyl-3-(thiophen-2-yl)propan-1-amine], the Ki in assay [1] is 500 to 1000 nM; in assay [2] it was 500 to 3000 nM.
On the same counts, the results for `CCNCCC(c1cccs1)N1CCc2ncccc21` (stereo not shown) [Example 8, 3-(2,3-Dihydro-1H-pyrrolo[3,2-b]pyridin-1-yl)-N-ethyl-3-(thiophen-2-yl)propan-1-amine] are more than 1000 nM and 100 to 500 nM.
On to `CNCC[C@@H](c1cccs1)N1CCc2c(C#N)cccc21` [Example 111, (S)-1-(3-(Methylamino)-1-(thiophen-2-yl)propyl)indoline-4-carbonitrile], for which the Ki in assay [1] was less than 100 nM; in assay [2], 500 to 3000 nM.
On the same counts, the results for `CNCC[C@H](c1cc(C)cs1)N1CCc2ncccc21` [Example 56, (R)-3-(2,3-Dihydro-1H-pyrrolo[3,2-b]pyridin-1-yl)-N-methyl-3-(4-methylthiophen-2-yl)propan-1-amine] are more than 1000 nM and 500 to 3000 nM.
For `CNCC[C@@H](c1cccs1)N1CC(C)(C)c2ncc(Cl)cc21` [Example 109, (S)-3-(6-Chloro-3,3-dimethyl-2,3-dihydro-1H-pyrrolo[3,2-b]pyridin-1-yl)-N-methyl-3-(thiophen-2-yl)propan-1-amine] the same measures were more than 1000 nM and not below 3000 nM.
For `CNCC[C@H](c1cccs1)N1CC(C)(C)c2ncc(Cl)cc21` [Example 110, (R)-3-(6-chloro-3,3-dimethyl-2,3-dihydro-1H-pyrrolo[3,2-b]pyridin-1-yl)-N-methyl-3-(thiophen-2-yl)propan-1-amine] the same measures were more than 1000 nM and 100 to 500 nM.
Take `CNCC[C@@H](c1ccsc1)N1CCc2ncccc21` [Example 23, (S)-3-(2,3-Dihydro-1H-pyrrolo[3,2-b]pyridin-1-yl)-N-methyl-3-(thiophen-3-yl)propan-1-amine]: the Ki in assay [1] and in assay [2] was 100 to 500 nM each time.
For `CNCCC(c1cccs1)N1CCc2ccccc21` (stereo not shown) [Example 1, 3-(Indolin-1-yl)-N-methyl-3-(thiophen-2-yl)propan-1-amine], the values for the Ki in assay [1] and in assay [2] were less than 100 nM and 500 to 3000 nM, respectively.
As for `CNCCC(c1cccs1)N1CC(C)(C)c2ncc(C)cc21` (racemic) [Example 81, N-methyl-3-(thiophen-2-yl)-3-(3,3,6-trimethyl-2,3-dihydro-1H-pyrrolo[3,2-b]pyridin-1-yl)propan-1-amine], the Ki in assay [1] was more than 1000 nM; in assay [2] it was less than 100 nM.
For `CCC1(CC)CN(C(CCNC)c2ccsc2)c2cccnc21` (racemic) [Example 86, 3-(3,3-Diethyl-2,3-dihydro-1H-pyrrolo[3,2-b]pyridin-1-yl)-N-methyl-3-(thiophen-3-yl)propan-1-amine] the same measures were more than 1000 nM and 500 to 3000 nM.
For `CNCC[C@@H](c1cccs1)N1c2ccccc2C[C@@H]1C` (racemic) [Example 119, (S/R)—N-methyl-3-((S/R)-2-methylindolin-1-yl)-3-(thiophen-2-yl)propan-1-amine], the Ki in assay [1] was more than 1000 nM; in assay [2], not below 3000 nM.
For `CNCCC(c1ccsc1)N1CC(C)(C)c2ncc(Cl)cc21` (racemic) [Example 80, 3-(6-Chloro-3,3-dimethyl-2,3-dihydro-1H-pyrrolo[3,2-b]pyridin-1-yl)-N-methyl-3-(thiophen-3-yl)propan-1-amine] the same measures were more than 1000 nM and 100 to 500 nM.
On the same counts, the results for `CNCC[C@H](c1cccc(F)c1)N1CC(C)(C)c2ncccc21` [Example 85, (R)-3-(3,3-Dimethyl-2,3-dihydro-1H-pyrrolo[3,2-b]pyridin-1-yl)-3-(3-fluorophenyl)-N-methylpropan-1-amine] are more than 1000 nM and not below 3000 nM.
As to `CCc1cnc2c(c1)N([C@@H](CCNC)c1cccs1)CC2` [Example 33, (S)-3-(6-Ethyl-2,3-dihydro-1H-pyrrolo[3,2-b]pyridin-1-yl)-N-methyl-3-(thiophen-2-yl)propan-1-amine], the Ki is 500 to 1000 nM in assay [1] and not below 3000 nM in assay [2].
For `CNCC[C@H](c1sccc1Cl)N1CCc2ncccc21` [Example 36, (R)-3-(3-Chlorothiophen-2-yl)-3-(2,3-dihydro-1H-pyrrolo[3,2-b]pyridin-1-yl)-N-methylpropan-1-amine] the same measures were 100 to 500 nM and not below 3000 nM.
In the case of `CNCC[C@H](c1cccs1)N1CCc2ncccc21` [Example 17, (R)-3-(2,3-dihydro-1H-pyrrolo[3,2-b]pyridin-1-yl)-N-methyl-3-(thiophen-2-yl)propan-1-amine], the Ki in assay [1] lay in the range of 100 to 500 nM; in assay [2], 500 to 3000 nM.
On the same counts, the results for `CNCCC(c1ccsc1)N1CCc2ncccc21` (stereo not shown) [Example 10, 3-(2,3-Dihydro-1H-pyrrolo[3,2-b]pyridin-1-yl)-N-methyl-3-(thiophen-3-yl)propan-1-amine] are 100 to 500 nM and 100 to 500 nM.
On the same counts, the results for `CNCC[C@@H](c1cc(C)sc1C)N1CCc2ncccc21` [Example 43, (S)-3-(2,3-Dihydro-1H-pyrrolo[3,2-b]pyridin-1-yl)-3-(2,5-dimethylthiophen-3-yl)-N-methylpropan-1-amine] are more than 1000 nM and not below 3000 nM.
Consider `CNCC[C@H](c1cccs1)N1CCc2ncc(C(C)C)cc21` [Example 39, (R)-3-(6-Isopropyl-2,3-dihydro-1H-pyrrolo[3,2-b]pyridin-1-yl)-N-methyl-3-(thiophen-2-yl)propan-1-amine], for which the results for the Ki in assay [1] and in assay [2] were more than 1000 nM and 100 to 500 nM, respectively.
With `CNCC[C@H](c1ccsc1)N1CCc2nc(C(C)C)ccc21` [Example 46, (R)-3-(5-Isopropyl-2,3-dihydro-1H-pyrrolo[3,2-b]pyridin-1-yl)-N-methyl-3-(thiophen-3-yl)propan-1-amine], the values for the Ki in assay [1] and in assay [2] were more than 1000 nM and 500 to 3000 nM, respectively.
